In patent publication US8026252B2 (priority 2005, dated 2011):

Biological target: T1, human μ opioid receptor (Homo sapiens, UniProt P35372)
T1 construct: expressed in transfected cells
T1 sequence (P35372 whole entry): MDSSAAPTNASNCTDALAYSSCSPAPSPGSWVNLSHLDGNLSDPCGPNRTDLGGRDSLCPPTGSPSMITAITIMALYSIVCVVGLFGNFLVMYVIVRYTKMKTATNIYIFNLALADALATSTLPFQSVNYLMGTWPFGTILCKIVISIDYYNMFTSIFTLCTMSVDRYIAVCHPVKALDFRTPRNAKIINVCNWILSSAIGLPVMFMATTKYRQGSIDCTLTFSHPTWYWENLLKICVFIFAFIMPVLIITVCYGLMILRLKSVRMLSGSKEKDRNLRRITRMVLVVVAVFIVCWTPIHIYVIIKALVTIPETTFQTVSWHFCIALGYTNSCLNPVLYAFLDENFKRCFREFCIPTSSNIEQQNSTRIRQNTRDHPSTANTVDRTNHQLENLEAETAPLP
Test: biochemical
Format: binding
Conditions: [3H]DAMGO (μ)
For CC(NC(=O)c1ccc2c(c1)C1(C)CCN(CC3CC3)C(C2)C1C)c1ccccc1 (single isomer, unassigned) [Example 67], the Ki was 28 ± 1.4 nM.
With C[C@H]1C2Cc3ccc(C(=O)NCCc4ccc(-c5cccc(Cl)c5)cc4)cc3[C@@]1(C)CCN2CC1CC1 [Example 50] the Ki was 0.56 ± 0.087 nM.
CC1C2Cc3ccc(C(=O)NCCCCCc4ccccc4)cc3C1(C)CCN2CC1CC1 (racemic) [Example 61] showed a Ki of 1.7 ± 0.15 nM.
For CC1C2C(=O)c3ccc(C(=O)NCCc4ccc(-c5ccccc5)cc4)cc3C1(C)CCN2CC1CC1 (stereo not drawn) [Example 20], the Ki was 3.1 ± 1.3 nM.
Work on CC[C@@]12CCN(CC3CC3)C(C(=O)c3ccc(C(=O)NCCc4ccc(-c5ccccc5)cc4)cc31)[C@@H]2C (mixture of isomers) [Example 21, (±)-3-(Cyclopropylmethyl)-6-ethyl-1,2,3,4,5,6-hexaahydro-cis-11-methyl-N-(2-[1,1′-biphenyl]-4-ylethyl)-1-oxo-2,6-methano-3-benzazocine-8-carboxamide] yielded a Ki of 4.9 ± 0.2 nM.
CC1C2Cc3ccc(C(=O)NCCc4cccnc4)cc3C1(C)CCN2CC1CC1 (racemic) [Example 69] gave a Ki of 120 ± 3.6 nM.
CC(CNC(=O)c1ccc2c(c1)[C@@]1(C)CCN(CC3CC3)C(C2)[C@@H]1C)c1ccc(-c2ccccc2)cc1 (stereo partly drawn) [Example 46] showed a Ki of 18 ± 1.1 nM.
With CC(NC(=O)c1ccc2c(c1)C1(C)CCN(CC3CC3)C(C2)C1C)c1ccccc1 (single isomer, unassigned) [Example 68] the Ki was 62 ± 3.3 nM.
In the case of O=C(NCCc1ccc(-c2ccccc2)cc1)c1ccc2c(c1)[C@@]13CCCC[C@@]1(O)[C@@H](C2)N(CC1CCC1)CC3 [Example 79, (−)-Q-butorphanol], the Ki is reported as 0.32 ± 0.048 nM.
Work on C[C@H]1C2Cc3ccc(C(=O)NCCc4ccc(C(=O)NCCc5ccc(Br)cc5)cc4)cc3[C@@]1(C)CCN2CC1CC1 [Example 53] yielded a Ki of 1.5 ± 0.18 nM.
C[C@H]1C2Cc3ccc(C(=O)NCCCCc4ccccc4)cc3[C@@]1(C)CCN2CC1CC1 [Example 60] gave a Ki of 4.3 ± 0.42 nM.
In the case of O=C1CC[C@@]2(O)[C@H]3Cc4ccc(C(=O)NCCc5ccc(-c6ccccc6)cc5)c(O)c4[C@@]2(CCN3CC2CC2)C1 [Example 81, Q-naltrexone ring opened], the Ki is reported as 0.71 ± 0.091 nM.
In the case of O=C(NCCc1ccc(-c2ccccc2)cc1)c1ccc2c3c1OC1C(=O)CCC4(O)C(C2)N(CC2CC2)CCC314 (single isomer, unassigned; (-)) [Example 71, (−)-Q-naltrexone], the Ki is reported as 1.4 ± 0.12 nM.

Same assay, conditions: read-out: [3H]DAMGO (μ)
For CC1[C@@H]2Cc3ccc(C(=O)NCCc4ccccc4Br)cc3[C@@]1(C)CCN2CC1CC1 (mixture of isomers) [Example 52, (±)-3-(Cyclopropylmethyl)-1,2,3,4,5,6-hexahydro-cis-6,11-dimethyl-N-(2-bromophenethyl)-2,6-methano-3-benzazocine-8-carboxamide], the Ki was 4 ± 0.36 nM.
With CC1[C@@H]2Cc3ccc(C(=O)NCCc4ccc(Br)cc4)cc3[C@@]1(C)CCN2CC1CC1 (mixture of isomers) [Example 29, (±)-3-(Cyclopropylmethyl)-1,2,3,4,5,6-hexahydro-cis-6,11-dimethyl-N-(4-bromophenethyl)-2,6-methano-3-benzazocine-8-carboxamide] the Ki was 2.4 ± 0.33 nM.
COc1ccc(-c2ccc(CCNC(=O)c3ccc4c(c3)[C@@]3(C)CCN(CC5CC5)C(C4)[C@@H]3C)cc2)cc1 [Example 48] gave a Ki of 0.084 ± 0.012 nM.
CC1[C@@H]2Cc3ccc(C(=O)NCCc4ccccc4)cc3[C@@]1(C)CCN2CC1CC1 (mixture of isomers) [Example 11, (±)-3-(Cyclopropylmethyl)-1,2,3,4,5,6-hexahydro-cis-6,11-dimethyl-N-(2-phenylethyl)-2,6-methano-3-benzazocine-8-carboxamide] gave a Ki of 3.5 ± 0.27 nM.
With CC1[C@@H]2Cc3ccc(C(=O)NCCc4cccc(Oc5ccccc5)c4)cc3[C@@]1(C)CCN2CC1CC1 (mixture of isomers) [Example 34, (±)-3-(Cyclopropylmethyl)-1,2,3,4,5,6-hexahydro-cis-6,11-dimethyl-N-(3-phenoxyphenethyl)-2,6-methano-3-benzazocine-8-carboxamide] the Ki was 0.54 ± 0.16 nM.
Work on CC1[C@@H]2Cc3ccc(C(=O)NCCc4ccccc4Oc4ccccc4)cc3[C@@]1(C)CCN2CC1CC1 (mixture of isomers) [Example 35, (±)-3-(Cyclopropylmethyl)-1,2,3,4,5,6-hexahydro-cis-6,11-dimethyl-N-(2-phenoxyphenethyl)-2,6-methano-3-benzazocine-8-carboxamide] yielded a Ki of 0.63 ± 0.09 nM.
For CC1[C@@H]2Cc3ccc(C(=O)NCCc4cccc(-c5ccccc5)c4)cc3[C@@]1(C)CCN2CC1CC1 (mixture of isomers) [Example 25, (±)-3-(Cyclopropylmethyl)-1,2,3,4,5,6-hexahydro-cis-6,11-dimethyl-N-(2-(biphenyl-3-yl)ethyl)-2,6-methano-3-benzazocine-8-carboxamide], the Ki was 0.95 ± 0.15 nM.
Work on C[C@H]1C2Cc3ccc(C(=O)NCCc4ccc(-c5ccc(Cl)cc5)cc4)cc3[C@@]1(C)CCN2CC1CC1 [Example 49] yielded a Ki of 0.2 ± 0.038 nM.
Cc1ccc(-c2ccc(CCNC(=O)c3ccc4c(c3)[C@@]3(C)CCN(CC5CC5)C(C4)[C@@H]3C)cc2)cc1 [Example 51] gave a Ki of 0.29 ± 0.075 nM.
With CC1[C@@H]2Cc3ccc(C(=O)NCCc4ccc(Oc5ccccc5)cc4)cc3[C@@]1(C)CCN2CC1CC1 (mixture of isomers) [Example 33, (±)-3-(Cyclopropylmethyl)-1,2,3,4,5,6-hexahydro-cis-6,11-dimethyl-N-(4-phenoxyphenethyl)-2,6-methano-3-benzazocine-8-carboxamide] the Ki was 0.059 ± 0.017 nM.
CC1[C@@H]2Cc3ccc(C(=O)NCCc4cccc(Br)c4)cc3[C@@]1(C)CCN2CC1CC1 (mixture of isomers) [Example 30, (±)-3-(Cyclopropylmethyl)-1,2,3,4,5,6-hexahydro-cis-6,11-dimethyl-N-(3-bromophenethyl)-2,6-methano-3-benzazocine-8-carboxamide] gave a Ki of 0.35 ± 0.021 nM.
For CC1[C@@H]2Cc3ccc(C(=O)NCCc4ccc5ccccc5c4)cc3[C@@]1(C)CCN2CC1CC1 (mixture of isomers) [Example 37, (±)-3-(Cyclopropylmethyl)-1,2,3,4,5,6-hexahydro-cis-6,11-dimethyl-N-(2-(naphthalen-2-yl)ethyl)-2,6-methano-3-benzazocine-8-carboxamide], the Ki was 0.18 ± 0.009 nM.
Work on CC1[C@@H]2Cc3ccc(C(=O)NCCCc4ccc5ccccc5c4)cc3[C@@]1(C)CCN2CC1CC1 (mixture of isomers) [Example 41, (±)-3-(Cyclopropylmethyl)-1,2,3,4,5,6-hexahydro-cis-6,11-dimethyl-N-(3-(naphthalen-2-yl)propyl)-2,6-methano-3-benzazocine-8-carboxamide] yielded a Ki of 2.4 ± 0.45 nM.
With CC1[C@@H]2Cc3ccc(C(=O)NCCc4cccc5ccccc45)cc3[C@@]1(C)CCN2CC1CC1 (mixture of isomers) [Example 40, (±)-3-(Cyclopropylmethyl)-1,2,3,4,5,6-hexahydro-cis-6,11-dimethyl-N-(2-(naphthalen-1-yl)ethyl)-2,6-methano-3-benzazocine-8-carboxamide] the Ki was 4.2 ± 0.13 nM.
CC1[C@@H]2Cc3ccc(C(=O)NCCCc4ccccc4)cc3[C@@]1(C)CCN2CC1CC1 (mixture of isomers) [Example 12, (±)-3-(Cyclopropylmethyl)-1,2,3,4,5,6-hexahydro-cis-6,11-dimethyl-N-(3-phenylpropyl)-2,6-methano-3-benzazocine-8-carboxamide] gave a Ki of 2.5 ± 0.27 nM.
Work on CC1[C@@H]2Cc3ccc(C(=O)NCCc4ccc(Cc5ccccc5)cc4)cc3[C@@]1(C)CCN2CC1CC1 (mixture of isomers) [Example 27, (±)-3-(Cyclopropylmethyl)-1,2,3,4,5,6-hexahydro-cis-6,11-dimethyl-N-(4-benzylphenethyl)-2,6-methano-3-benzazocine-8-carboxamide] yielded a Ki of 0.23 ± 0.032 nM.
Work on CC1[C@@H]2Cc3ccc(C(=O)NCCc4ccccc4-c4ccccc4)cc3[C@@]1(C)CCN2CC1CC1 (mixture of isomers) [Example 26, (±)-3-(Cyclopropylmethyl)-1,2,3,4,5,6-hexahydro-cis-6,11-dimethyl-N-(2-(biphenyl-2-yl)ethyl)-2,6-methano-3-benzazocine-8-carboxamide] yielded a Ki of 6.7 ± 0.49 nM.
CC1[C@@H]2Cc3ccc(C(=O)NCCCc4ccc5ccccc5c4)cc3[C@@]1(C)CCN2CC1CC1 (mixture of isomers) [Example 38, (±)-3-(Cyclopropylmethyl)-1,2,3,4,5,6-hexahydro-cis-6,11-dimethyl-N-(3-(naphthalen-2-yl)propyl)-2,6-methano-3-benzazocine-8-carboxamide] showed a Ki of 1.9 ± 0.19 nM.

Tested on: guinea pig μ receptors
Test: not given
Conditions: background, U.S. Pat. No. 6,784,187; cited from earlier work
For C[C@H]1C2Cc3ccc(C(N)=O)cc3[C@@]1(C)CCN2CC1CC1 [Example 8-CAC, 8-carboxamidocyclazocine], the “affinity for μ opioid receptors” value is given as “high affinity”.

Tested on: κ opioid receptors
Test: not given
Conditions: background, U.S. Pat. No. 6,784,187; cited from earlier work
For C[C@H]1C2Cc3ccc(C(N)=O)cc3[C@@]1(C)CCN2CC1CC1 [Example 8-CAC, 8-carboxamidocyclazocine], the “affinity for κ opioid receptors” value is listed as “high affinity”.

Tested on: mice
Test: not given
Conditions: 1 mg/kg ip in mice; cited from earlier work
For C[C@H]1C2Cc3ccc(C(N)=O)cc3[C@@]1(C)CCN2CC1CC1 [Example 8-CAC, 8-carboxamidocyclazocine], the duration of action is listed as 15 h.
For C[C@H]1[C@H]2Cc3ccc(O)cc3[C@]1(C)CCN2CC1CC1 [cyclazocine], the duration of action is given as 2 h.

Same assay, conditions: background; cited from earlier work
In the case of C[C@H]1C2Cc3ccc(C(N)=O)cc3[C@@]1(C)CCN2CC1CC1 [Example 8-CAC, 8-carboxamidocyclazocine], the “antinociception activity in vivo” value is listed as “high antinociception activity”.
